Reference: the supplement of paper PMC10627819

Assays:
Assay in all cases: Bliss interaction score (quartile over a dose matrix) (fitness difference); higher = more antagonism (negative = synergy)
S. aureus Newman = system: S. aureus Newman
Procedure, shortened: (§1)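 At entry into stationary phase, OD595 was recorded and divided by the robust mean of the no-drug wells on that plate, with any value above 1 set to 1. This gives the fitness measure used throughout. Single-drug fitness was inferred from combination data, and the Bliss score, observed minus product-expected fitness, is shown as quartiles across technical, biological and donor/recipient replicates.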

S. aureus DSM 20231 = system: S. aureus DSM 20231
Procedure, shortened: as §1

B. subtilis 168 = system: B. subtilis 168
Procedure, shortened: as §1

S. pneumoniae D39V = system: S. pneumoniae D39V
Procedure, shortened: as §1
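Note: first quartile when negative (synergy) and third quartile when positive (antagonism).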

Structure (SMILES)	Bliss interaction score (S. aureus Newman)	Bliss interaction score (S. aureus DSM 20231)	Bliss interaction score (B. subtilis 168)	Bliss interaction score (S. pneumoniae D39V)
CC[C@H]1OC(=O)[C@H](C)[C@@H](O[C@H]2C[C@@](C)(OC)[C@@H](O)[C@H](C)O2)[C@H](C)[C@@H](O[C@@H]2O[C@H](C)C[C@H](N(C)C)[C@H]2O)[C@](C)(O)C[C@@H](C)C(=O)[C@H](C)[C@@H](O)[C@]1(C)O [Erythromycin] + CO[C@H]1/C=C/O[C@@]2(C)Oc3c(C)c(O)c4c(O)c(c(/C=N/N5CCN(C)CC5)c(O)c4c3C2=O)NC(=O)/C(C)=C\C=C\[C@H](C)[C@H](O)[C@@H](C)[C@@H](O)[C@@H](C)[C@H](OC(C)=O)[C@@H]1C [Rifampicin]	0.0582	0.0363	0.116	0.0763
CC[C@H]1OC(=O)[C@H](C)[C@@H](O[C@H]2C[C@@](C)(OC)[C@@H](O)[C@H](C)O2)[C@H](C)[C@@H](O[C@@H]2O[C@H](C)C[C@H](N(C)C)[C@H]2O)[C@](C)(O)C[C@@H](C)C(=O)[C@H](C)[C@@H](O)[C@]1(C)O [Erythromycin] + COc1c(N2C[C@@H]3CCCN[C@@H]3C2)c(F)cc2c(=O)c(C(=O)O)cn(C3CC3)c12 [Moxifloxacin]	0.0486	0.0532	0.0269	0.101
CC[C@H]1OC(=O)[C@H](C)[C@@H](O[C@H]2C[C@@](C)(OC)[C@@H](O)[C@H](C)O2)[C@H](C)[C@@H](O[C@@H]2O[C@H](C)C[C@H](N(C)C)[C@H]2O)[C@](C)(O)C[C@@H](C)C(=O)[C@H](C)[C@@H](O)[C@]1(C)O [Erythromycin] + COc1cc(Cc2cnc(N)nc2N)cc(OC)c1OC [Trimethoprim]	0.0715	0.0179	-0.155	-0.0464
CC[C@H]1OC(=O)[C@H](C)[C@@H](O[C@H]2C[C@@](C)(OC)[C@@H](O)[C@H](C)O2)[C@H](C)[C@@H](O[C@@H]2O[C@H](C)C[C@H](N(C)C)[C@H]2O)[C@](C)(O)C[C@@H](C)C(=O)[C@H](C)[C@@H](O)[C@]1(C)O [Erythromycin] + COc1ccc(C[C@H](N)C(=O)N[C@H]2[C@@H](O)[C@H](n3cnc4c(N(C)C)ncnc43)O[C@@H]2CO)cc1 [Puromycin]	-0.0378	-0.0389	-0.0531	-0.0449
CC[C@H]1OC(=O)[C@H](C)[C@@H](O[C@H]2C[C@@](C)(OC)[C@@H](O)[C@H](C)O2)[C@H](C)[C@@H](O[C@@H]2O[C@H](C)C[C@H](N(C)C)[C@H]2O)[C@](C)(O)C[C@@H](C)C(=O)[C@H](C)[C@@H](O)[C@]1(C)O [Erythromycin] + C[C@@H]1O[C@@H]1P(=O)(O)O [Fosfomycin]	-0.073	-0.0365	0.116	0.0627
CC[C@H]1OC(=O)[C@H](C)[C@@H](O[C@H]2C[C@@](C)(OC)[C@@H](O)[C@H](C)O2)[C@H](C)[C@@H](O[C@@H]2O[C@H](C)C[C@H](N(C)C)[C@H]2O)[C@](C)(O)C[C@@H](C)C(=O)[C@H](C)[C@@H](O)[C@]1(C)O [Erythromycin] + C[C@@H](O)[C@H]1C(=O)N2C(C(=O)O)=C(SCCNC=N)C[C@H]12 [Imipenem]	0.0221	0.0185	0.078	-0.0344
CC[C@H]1OC(=O)[C@H](C)[C@@H](O[C@H]2C[C@@](C)(OC)[C@@H](O)[C@H](C)O2)[C@H](C)[C@@H](O[C@@H]2O[C@H](C)C[C@H](N(C)C)[C@H]2O)[C@](C)(O)C[C@@H](C)C(=O)[C@H](C)[C@@H](O)[C@]1(C)O [Erythromycin] + C[C@H]1COc2c(N3CCN(C)CC3)c(F)cc3c(=O)c(C(=O)O)cn1c23 [Levofloxacin]	0.0478	0.0327	0.041	0.0979
CC[C@H]1OC(=O)[C@H](C)[C@@H](O[C@H]2C[C@@](C)(OC)[C@@H](O)[C@H](C)O2)[C@H](C)[C@@H](O[C@@H]2O[C@H](C)C[C@H](N(C)C)[C@H]2O)[C@](C)(O)C[C@@H](C)C(=O)[C@H](C)[C@@H](O)[C@]1(C)O [Erythromycin] + C[n+]1ccc(-c2cc[n+](C)cc2)cc1 [Paraquat]	0.0479	0.0299	-0.0399	0.0496
CC[C@H]1OC(=O)[C@H](C)[C@@H](O[C@H]2C[C@@](C)(OC)[C@@H](O)[C@H](C)O2)[C@H](C)[C@@H](O[C@@H]2O[C@H](C)C[C@H](N(C)C)[C@H]2O)[C@](C)(O)C[C@@H](C)C(=O)[C@H](C)[C@@H](O)[C@]1(C)O [Erythromycin] + Cc1cc(NS(=O)(=O)c2ccc(N)cc2)no1 [Sulfamethoxazol]	-0.0442	-0.0354	-0.0511	-0.0479
CC[C@H]1OC(=O)[C@H](C)[C@@H](O[C@H]2C[C@@](C)(OC)[C@@H](O)[C@H](C)O2)[C@H](C)[C@@H](O[C@@H]2O[C@H](C)C[C@H](N(C)C)[C@H]2O)[C@](C)(O)C[C@@H](C)C(=O)[C@H](C)[C@@H](O)[C@]1(C)O [Erythromycin] + Cc1ncc([N+](=O)[O-])n1CCO [Metronidazole]	-0.0396	-0.0288	-0.0335	0.0719
CC[C@H]1OC(=O)[C@H](C)[C@@H](O[C@H]2C[C@@](C)(OC)[C@@H](O)[C@H](C)O2)[C@H](C)[C@@H](O[C@@H]2O[C@H](C)C[C@H](N(C)C)[C@H]2O)[C@](C)(O)C[C@@H](C)C(=O)[C@H](C)[C@@H](O)[C@]1(C)O [Erythromycin] + Cc1onc(-c2ccccc2)c1C(=O)N[C@@H]1C(=O)N2[C@@H]1SC(C)(C)[C@@H]2C(=O)O [Oxacillin]	0.0255	0.0345	-0.0427	0.0509
CC[C@H]1OC(=O)[C@H](C)[C@@H](O[C@H]2C[C@@](C)(OC)[C@@H](O)[C@H](C)O2)[C@H](C)[C@@H](O[C@@H]2O[C@H](C)C[C@H](N(C)C)[C@H]2O)[C@](C)(O)C[C@@H](C)C(=O)[C@H](C)[C@@H](O)[C@]1(C)O [Erythromycin] + Clc1ccc(COC(Cn2ccnc2)c2ccc(Cl)cc2Cl)c(Cl)c1 [Miconazole]	0.0457	0.0299	-0.0519	0.114
